Common to all, as to experiment: DTP human tumour cell line panel, 48 h
Test [1] concerns KM12.
Test [2] has as its system LOX IMVI.
Test [3] relates to EKVX.
The subject of test [4] is SF-295.
In test [5] the test system is IGROV-1.
The subject of test [6] is Hs-578T.
In test [7] the test system is HCT-116.
In test [8] the test system is SK-MEL-2.
Test [9] deals with Malme-3M.
The subject of test [10] is DMS-273.
Test [11] concerns TK-10.
The test system of test [12] is HCC 2998.
For test [13], the system named is UACC-62.
Test [14] deals with OVCAR-5.
The test system of test [15] is KM-20L2.
Test [16] concerns K562.
Test [17] deals with CCRF-CEM.
The test system of test [18] is SNB-78.
Test [19] has as its system SK-MEL-5.
The subject of test [20] is MDA-MB-435.

Structures are written as SMILES.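 All cell lines were grown in 96-well plates and treated with compound for 48 hours. GI50 is the concentration that inhibits growth by half.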 The source made the active and inactive calls. Cut-off read from the data, not from the text of the source: active = GI50 up to about 1.1 µM and inactive = higher. Some results are limits rather than exact numbers.

As for `Cn1c(=O)nc2n(-c3ccc(Cl)cc3)c3cc(Cl)ccc3nc-2c1=O`, the GI50 (as a rule, the concentration giving 50% growth inhibition) in [1] is 5520 nM (inactive); in test [2] it was 2030 nM (inactive); in test [3], 8850 nM (inactive); in [4], 10900 nM (inactive); in test [5] it was 1600 nM (inactive); in test [6] it was 2480 nM (inactive). Besides, the GI50 in test [7] was 3920 nM (inactive); in test [8] it was 2550 nM (inactive); in [9], 1890 nM (inactive); in [10] it was 3560 nM (inactive); in test [11] it was 20000 nM (inactive); in [12] it was 4490 nM (inactive). Besides, the GI50 in test [13] was 1880 nM (inactive); in test [14] it was 15000 nM (inactive); in [15], 3440 nM (inactive); in test [16], 2370 nM (inactive); in [17], 5820 nM (inactive); in [18] it was > 37900 nM (inactive). The GI50 in [19] was 1670 nM (inactive); in test [20], 1680 nM (inactive).

Regarding `COC1C(N)C(OC2C(Oc3cccc4c(O)c5c(=O)oc6ccc(C)c7c(=O)oc(c34)c5c67)OC(C)C(O)C2(C)O)OC(C)C1O` (stereo not given), the GI50 in test [1] was 31.3 nM (active); in test [2] it was < 12.5 nM (active); in test [3], 156 nM (active); in [4] it was 31.2 nM (active); in [5], < 19.7 nM (active); in test [6] it was < 10 nM (active). Also, the GI50 in [7] is < 10 nM (active); in test [8] it was 10.8 nM (active); in [9], < 10.7 nM (active); in [10] it was < 10 nM (active); in [11] it was 64.3 nM (active); in test [12] it was 110 nM (active). For the same compound, the GI50 in [13] is 20.8 nM (active); in [14], 270 nM (active); in test [15], 56.8 nM (active); in [16], < 15.4 nM (active); in test [17], < 23.6 nM (active); in test [18], 39.4 nM (active). Also, the GI50 in [19] was 31 nM (active); in [20] it was 31.3 nM (active).

Values taken from ChEMBL document CHEMBL1201862, “PubChem BioAssay data set” (2004).
